Results taken from publication PMC5947712, “High‐Throughput Kinetic Analysis for Target‐Directed Covalent Ligand Discovery” (Angewandte Chemie (International Ed. in English), 2018).

Tests used:
Cdk2 = molecular target: T1, Cdk2 (Homo sapiens, UniProt P24941); assay: In-cell target engagement: CuAAC biotin tagging, Neutravidin pulldown, anti-Cdk2 western blot; assay type: cell-based; details: HeLa cells, 6 hours treatment
T1 construct: endogenous in cells; host or cells: HeLa
Procedure: (§1) To evaluate whether this in vitro activity would translate into in‐cell target engagement, acrylamide 3 (REFCdk2(WT)=5.6, k GSH=0.033 h^−1, k Cdk2(WT)=0.185 h^−1) was synthesized as a target engagement probe, containing an alkyne handle for bio‐orthogonal ligation. HeLa cells were treated with probe 3 and protein lysates subjected to copper(I) catalyzed azide–alkyne cycloaddition (CuAAC)30 to affect biotin conjugation.
(§2) Figure 7 HeLa cells were treated with 3 for 6 hours. After tagging with biotin‐azide, Neutavidin pulldown was performed. Western blot analysis (anti‐Cdk2 and Cdk1) was performed before (Lysate) and after pulldown (PD).
(§3) 100Rfold! dilution! gave! the! optimum! seed! concentration! for! subsequent! crystallization.!Ligand" conjugated" Cdk2:!Crystallisation!
(§4) was! performed! by! mixing! 1! µL! of! labelled! Cdk2! solution! (8! mg! mLR1,! 100! mM! phosphate! buffer)! with! 0.5! µL! of! reservoir! soluR
(§5) tion! (Jeffamine! EDR2003! concentration! range! 18!R!30%! w/v,! 100! mM! HEPES,! pH! range! 7.5!–!8.5)! and! 0.5! µL! diluted! apoR
(§6) Cdk2(WT)!microseed!stock.!For!labelled!Cdk2(WT),!crystals!appeared!within!2–3!days!and!grew!for!another!10–14!days.!
(§7) L.,Molecular,dynamics,simulation, […]
(§8) maps!were!calculated!using!FFT[20]!and!figures!were!prepared!using!PyMol!(Schrödinger).! […]
(§9) Phosphorylation! of! […] Cdk2! during! gel! electrophoresis! and! the! reaction! was! monitored! by! […]

Cdk1 = molecular target: T2, Cdk1 (Homo sapiens, UniProt P06493); assay: In-cell target engagement: CuAAC biotin tagging, Neutravidin pulldown, anti-Cdk1 western blot; assay type: cell-based; details: HeLa cells, 6 hours treatment
T2 construct: endogenous in cells; host or cells: HeLa
T2 sequence (P06493 whole entry): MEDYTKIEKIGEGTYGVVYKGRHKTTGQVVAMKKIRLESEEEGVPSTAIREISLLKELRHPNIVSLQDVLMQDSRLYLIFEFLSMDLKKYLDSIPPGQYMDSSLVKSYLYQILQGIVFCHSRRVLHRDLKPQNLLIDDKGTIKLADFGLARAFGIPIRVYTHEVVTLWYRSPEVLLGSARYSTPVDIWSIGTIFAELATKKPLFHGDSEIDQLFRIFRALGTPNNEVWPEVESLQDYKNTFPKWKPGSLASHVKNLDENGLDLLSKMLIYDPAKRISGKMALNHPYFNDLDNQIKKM
Procedure: as §1, §2, §3, §4, §5, §6, §7, §8, §9

Cdk2(WT) = Cdk2(WT) (Homo sapiens, UniProt P24941); assay: qIT thiol consumption assay with Cdk2(WT) (Cys177); assay type: binding; set-up: made in house; host or cells: E. coli Tuner(DE3)
[1] = qIT (quantitative irreversible tethering) thiol consumption assay with glutathione; details: compound 0.5 mM, glutathione 5 μM, TCEP-agarose 2 % w/v
Procedure: To measure the kinetics of electrophile‐thiol conjugation we developed quantitative irreversible tethering (qIT), a technique which employs fluorogenic thiol quantification (FTQ) in a high‐throughput thiol consumption assay (Figure 1 a). […] We solved this problem using an immobilized reducing agent (TCEP‐agarose, 2 % w/v), allowing facile separation by centrifugation before conducting the FTQ step (Figure 1 b).
The target thiol (5 μM) is reacted with electrophilic fragments (0.5 mM) under pseudo‐first‐order conditions in the presence of TCEP‐agarose (2 % w/v). Reaction progress is followed by discrete measurements of residual target thiol concentration using the fluorogenic probe CPM and rate constants are derived from exponential regression analysis. b) TCEP‐agarose prevents aerobic thiol oxidation. Glutathione solutions were stored ±TCEP‐agarose (2 % w/v).
Electrophiles were individually reacted with glutathione under pseudo‐first‐order conditions in the presence of TCEP‐agarose. […] Fluorescence measurements were normalized against a DMSO control and exponential regressions used to determine rate constants.
ReactionBplate" setup:!Each! well! of! a! 96Rwell! PCR! plate! was! charged! with! 60–100! µL! of! target! thiol! (GSH! or! protein,! 10! µM)!
and! 4%! w/v! TCEPRagarose! beads! in! 100! mM! phosphate! buffer! (pH! 7.5! or! 8)! and! cooled! to! 4! ˚C.! Reactions! were! started! by!
addition! of! an! equal! volume! of! preRcooled! electrophile! solution! (1! mM,! 2%! DMSO)! in! 0.1! M! phosphate! buffer! (final! concentraR
tion:! thiol! =! 5! µM,! electrophile! =! 0.5! mM,! 2%! w/v! TCEPRagarose! beads),! with! a! minimum! of! 4! wells! per! plate! used! as!
DMSO/thiol! only! controls.! After! mixing,! TCEPRagarose! was! pelleted! by! centrifugation! (1,300! rpm,! 1! min)! and! the! plate! incuR
bated!at!4!˚C.,CPM"Quench:! At! a! series! of! time! points!

C#CCNC(=O)N1CCN(C(=O)C=C)c2ccccc21 [Acrylamide 3]
enrichment of Cdk2 after pull-down (western blot) (Cdk2): concentration‐dependent enrichment | isolation of Cdk1 after pull-down (western blot) (Cdk1): not isolated | k Cdk2(WT) (pseudo-first-order rate constant) (Cdk2(WT); compound 0.5 mM, Cdk2(WT) 5 μM, TCEP-agarose 2 % w/v): 0.185 h⁻¹ | REF Cdk2(WT) (rate enhancement factor = k protein/k GSH) (Cdk2(WT); k Cdk2(WT)/k GSH): 5.6 | k GSH (pseudo-first-order rate constant) [1]: 0.033 h⁻¹
